{"source": "patent US20260258085A1", "about": "“NOVEL DECAPEPTIDE AND USE THEREOF IN ANTIBACTERIAL” (METHYCURE BIOTECH CORP., priority 2023, published 2026)", "key": {"E. coli": {"tested_on": "E. coli", "assay": "Minimum inhibitory concentration test against common Gram-negative bacteria", "assay_type": "cell-based, Escherichia coli", "conditions": "clinical isolate, 37° C., 16 hours, visual reading", "protocol": "(§1) The pathogenic bacteria used for testing were all sourced from the intensive care unit of Gulou Hospital, isolated and cultured from clinical samples of patients with severe pneumonia. The strain species were identified by the Microbiology Laboratory of Gulou Hospital. The Gram-negative bacteria here include Escherichia coli, Pseudomonas aeruginosa, Acinetobacter baumannii, Klebsiella pneumoniae, etc.\n(§2) A single colony of the test bacteria was inoculated into 5 ml of medium and cultured overnight to saturation. 10 μL of bacterial culture was aspirated and added to 990 μL of fresh medium, mixed well, to obtain a 100-fold diluted bacterial suspension. Then, 20 μL of the 100-fold diluted bacterial suspension was aspirated and added to 980 μL of fresh medium, mixed well. The bacteria obtained at this point were diluted 5000-fold.\n(§3) The antimicrobial peptide was dissolved in Dimethyl sulfoxide (DMSO) to obtain a stock solution with a concentration of 12.8 mg/mL. Using DMSO, a two-fold serial dilution was performed for 10 consecutive times.\nAdd the 11 gradients of antimicrobial peptide diluted in step 1.1.2 to a 96-well plate, respectively, with the last well containing the same volume of DMSO. Then, add 48 μL of fresh medium to each well. Subsequently, add the 5000-fold diluted bacteria from step 1.1.1 to each well. Mix well. Incubate at 37° C. for 16 hours. […]"}, "Acinetobacter baumannii": {"tested_on": "Acinetobacter baumannii", "assay": "Minimum inhibitory concentration test against common Gram-negative bacteria", "assay_type": "cell-based", "conditions": "clinical isolate, 37° C., 16 hours, visual reading", "protocol": "as §1, §2, §3\n(§4) Add the 11 gradients of antimicrobial peptide diluted in step 1.1.2 to a 96-well plate, respectively, with the last well containing the same volume of DMSO. Then, add 48 μL of fresh medium to each well. Subsequently, add the 5000-fold diluted bacteria from step 1.1.1 to each well. Mix well. Incubate at 37° C. for 16 hours. Visually determine the concentration at which bacterial growth begins to be inhibited; this is the minimum inhibitory concentration (MIC)."}, "Klebsiella pneumoniae": {"tested_on": "Klebsiella pneumoniae", "assay": "Minimum inhibitory concentration test against common Gram-negative bacteria", "assay_type": "cell-based", "conditions": "clinical isolate, 37° C., 16 hours, visual reading", "protocol": "as §1, §2, §3, §4"}, "Pseudomonas aeruginosa": {"tested_on": "Pseudomonas aeruginosa", "assay": "Minimum inhibitory concentration test against common Gram-negative bacteria", "assay_type": "cell-based", "conditions": "clinical isolate, 37° C., 16 hours, visual reading", "protocol": "as §1, §2, §3, §4"}, "[1]": {"tested_on": "A. baumannii containing the MCR-1 plasmid", "assay_type": "cell-based, Acinetobacter baumannii", "conditions": "for Minimum Inhibitory Concentration, A. baumannii 1: strain 1, MCR-1 plasmid; for Minimum Inhibitory Concentration, A. baumannii 2: strain 2, MCR-1 plasmid", "protocol": "(§5) The polymyxin-resistant pathogenic bacteria used for testing were all sourced from the hospital intensive care unit, isolated and cultured from clinical samples of patients with severe pneumonia. The strain species were identified by the hospital microbiology laboratory, and the presence of the mcr-1 gene in the strains was confirmed by high-throughput sequencing.\n(§6) The culture procedure fully referenced Example 1.\n(§7) Each bacterial species in the table was tested using 2 strains, denoted as “1” and “2” respectively."}, "[2]": {"tested_on": "P. aeruginosa containing the MCR-1 plasmid", "assay_type": "cell-based, Pseudomonas aeruginosa", "conditions": "for Minimum Inhibitory Concentration, P. aeruginosa 1: strain 1, MCR-1 plasmid; for Minimum Inhibitory Concentration, P. aeruginosa 2: strain 2, MCR-1 plasmid", "protocol": "as §5, §6, §7"}, "[3]": {"tested_on": "E. coli containing the MCR-1 plasmid", "assay_type": "cell-based, Escherichia coli", "conditions": "for Minimum Inhibitory Concentration, E. coli 1: strain 1, MCR-1 plasmid; for Minimum Inhibitory Concentration, E. coli 2: strain 2, MCR-1 plasmid", "protocol": "as §5, §6, §7"}, "[4]": {"tested_on": "K. pneumoniae containing the MCR-1 plasmid", "assay_type": "cell-based, Klebsiella pneumoniae", "conditions": "for Minimum Inhibitory Concentration, K. pneumoniae 1: strain 1, MCR-1 plasmid; for Minimum Inhibitory Concentration, K. pneumoniae 2: strain 2, MCR-1 plasmid", "protocol": "as §5, §6, §7"}, "[5]": {"tested_on": "polymyxin-resistant Acinetobacter baumannii", "assay": "Efficacy in neutropenic mice with thigh infection", "assay_type": "in vivo", "conditions": "neutropenic CD1 mice, 20 mg/kg subcutaneous at 2, 8, 14, 24 hours post-infection, endpoint 24 hours", "description": "All mice used in this part passed the ethical review of animal research at Nanjing University. To avoid the influence of the mouse's innate immune system on the intrinsic activity of the antimicrobial peptide, we constructed a neutropenic mouse model. This experiment used 6-week-old CD1 female mice (20-25 g). Mice were randomly housed in individually ventilated cages and maintained according to the standards of the Association for Assessment and Accreditation of Laboratory Animal Care International. The room was set to a 12-hour light cycle, temperature of 21° C., and humidity of 30%. […]\nAt 2, 8, 14, and 24 hours post-infection, mice were subcutaneously injected with 100 μL of vehicle (0.9% saline), Polymyxin E (Colistin) (20 mg/kg), or the antimicrobial peptide (20 mg/kg). […] All mice were closely monitored post-infection for signs of illness. Any abnormal clinical symptoms were recorded. […] Thigh muscles were processed aseptically, weighed, homogenized, and plated for CFU counts on MH agar containing 50 μg/mL gentamicin to quantify the bacterial burden. Efficacy was determined by the reduction in bacterial burden in the thighs compared to the […] control group. All graphical data were statistically analyzed using GraphPad Prism software (Prism v.9). Differences in burden between test and control groups were assessed using one-way analysis. […]"}}, "note": "Positions of bridges follow the written chain, without caps; N, C: chain ends. Non-standard residues stand in square brackets, D forms with d. Residues, ends and D or L forms follow the SMILES beside them. *: point of attachment. X1 = CC[C@H](C)CCCCC(=O)*; dDab = NCC[C@@H](N)C(=O)O; Dab = NCC[C@H](N)C(=O)O", "data": [{"smiles": "CC[C@H](C)CCCCC(=O)N[C@@H](CCN)C(=O)N[C@H](C(=O)N[C@H](CCN)C(=O)N[C@H]1CCNC(=O)[C@H](CC(C)C)NC(=O)[C@H](CCN)NC(=O)[C@H](CCN)NC(=O)[C@H]([C@@H](C)CC)NC(=O)[C@@H](CC(C)C)NC(=O)[C@H](CCN)NC1=O)[C@@H](C)O", "note": "[Antimicrobial Peptide, {6-ME-Octanoic acid}-{Dab}-{Thr}-{D-Dab}-{Dab}-{Dab}-{D-Leu}-{Ile}-{Dab}-{Dab}-{Leu}] (X1-[Dab]T[dDab][Dab][Dab][dL]I[Dab][Dab]L; lactam 4-C)", "values": [{"measurement": "Minimum Inhibitory Concentration (MIC)", "setting": "E. coli", "value": 4, "unit": "µg/mL"}, {"measurement": "Minimum Inhibitory Concentration (MIC)", "setting": "Acinetobacter baumannii", "value": 16, "unit": "µg/mL"}, {"measurement": "Minimum Inhibitory Concentration (MIC)", "setting": "Klebsiella pneumoniae", "value": 8, "unit": "µg/mL"}, {"measurement": "Minimum Inhibitory Concentration (MIC)", "setting": "Pseudomonas aeruginosa", "value": 4, "unit": "µg/mL"}, {"measurement": "Minimum Inhibitory Concentration, A. baumannii 1", "setting": "[1]", "value": 4, "unit": "µg/mL"}, {"measurement": "Minimum Inhibitory Concentration, A. baumannii 2", "setting": "[1]", "value": 2, "unit": "µg/mL"}, {"measurement": "Minimum Inhibitory Concentration, P. aeruginosa 1", "setting": "[2]", "value": 2, "unit": "µg/mL"}, {"measurement": "Minimum Inhibitory Concentration, P. aeruginosa 2", "setting": "[2]", "value": 1, "unit": "µg/mL"}, {"measurement": "Minimum Inhibitory Concentration, E. coli 1", "setting": "[3]", "value": 2, "unit": "µg/mL"}, {"measurement": "Minimum Inhibitory Concentration, E. coli 2", "setting": "[3]", "value": 2, "unit": "µg/mL"}, {"measurement": "Minimum Inhibitory Concentration, K. pneumoniae 1", "setting": "[4]", "value": 1, "unit": "µg/mL"}, {"measurement": "Minimum Inhibitory Concentration, K. pneumoniae 2", "setting": "[4]", "value": 2, "unit": "µg/mL"}, {"measurement": "bacterial burden in thighs (CFU)", "setting": "[5]", "value": "significant reduction in colony-forming units (CFU)"}]}, {"smiles": "CC[C@H](C)CCCCC(=O)N[C@@H](CCN)C(=O)N[C@H](C(=O)N[C@@H](CCN)C(=O)N[C@H]1CCNC(=O)[C@H]([C@@H](C)O)NC(=O)[C@H](CCN)NC(=O)[C@H](CCN)NC(=O)[C@H](CC(C)C)NC(=O)[C@@H](CC(C)C)NC(=O)[C@H](CCN)NC1=O)[C@@H](C)O", "note": "[Colistin, reference compound] (X1-[Dab]T[Dab][Dab][Dab][dL]L[Dab][Dab]T; lactam 4-C)", "values": [{"measurement": "Minimum Inhibitory Concentration, A. baumannii 1", "setting": "[1]", "value": 128, "unit": "µg/mL"}, {"measurement": "Minimum Inhibitory Concentration, A. baumannii 2", "setting": "[1]", "value": 128, "unit": "µg/mL"}, {"measurement": "Minimum Inhibitory Concentration, P. aeruginosa 1", "setting": "[2]", "value": 64, "unit": "µg/mL"}, {"measurement": "Minimum Inhibitory Concentration, P. aeruginosa 2", "setting": "[2]", "value": 128, "unit": "µg/mL"}, {"measurement": "Minimum Inhibitory Concentration, E. coli 1", "setting": "[3]", "value": 128, "unit": "µg/mL"}, {"measurement": "Minimum Inhibitory Concentration, E. coli 2", "setting": "[3]", "value": 256, "unit": "µg/mL"}, {"measurement": "Minimum Inhibitory Concentration, K. pneumoniae 1", "setting": "[4]", "value": 64, "unit": "µg/mL"}, {"measurement": "Minimum Inhibitory Concentration, K. pneumoniae 2", "setting": "[4]", "value": 128, "unit": "µg/mL"}, {"measurement": "bacterial burden in thighs (CFU)", "setting": "[5]", "value": "did not reduce the count of Acinetobacter baumannii"}]}]}
